# Data taken from article PMC4658304 (Nuclear medicine and biology, 2015).
# Several values for one entry are separate records, joined by “and”; a condition that tells them apart may be missing. Equal values may be shown once. Read-outs that look alike come from different tables or passages of the source.
# What was measured:
# [1] = biological target: T1, mGluR1 (Macaca mulatta, UniProt I2CU04); details: cited from earlier work; for peak uptake in mGluR1-rich cerebellum: rhesus monkey
# [2] = cited from earlier work
# [3] = Plasma free fraction; type: in vitro ADME; details: rhesus monkey plasma, pre-blocked condition (JNJ16259685 3 mg/kg i.v.), n = 3
# [4] = monkey brain homogenates, 30 min, room temperature
# [5] = Stability in sodium phosphate buffer; type: physicochemical; details: sodium phosphate buffer 0.15 M pH 7.4, 57 min, room temperature, n = 4
# [6] = biological target: T1, mGluR1; details: baseline
# [7] = Emergence of radiometabolites in monkey plasma; type: in vivo, rhesus monkey
# [8] = Stability in monkey whole blood and plasma; type: in vitro ADME; details: 30 min, room temperature
# [9] = biological target: T1, mGluR1; test: Two-tissue compartmental modeling of PET data
# [10] = Stability of formulated radioligand in saline containing ethanol; type: physicochemical; details: saline containing ethanol (10% v/v), 1 h, room temperature, HPLC
# [11] = test system: mGluR1; details: read-out: IC50 (mGluR1 affinity); mGluR1 radioligand affinity; cited from earlier work
# T1 sequence (I2CU04 19-1195): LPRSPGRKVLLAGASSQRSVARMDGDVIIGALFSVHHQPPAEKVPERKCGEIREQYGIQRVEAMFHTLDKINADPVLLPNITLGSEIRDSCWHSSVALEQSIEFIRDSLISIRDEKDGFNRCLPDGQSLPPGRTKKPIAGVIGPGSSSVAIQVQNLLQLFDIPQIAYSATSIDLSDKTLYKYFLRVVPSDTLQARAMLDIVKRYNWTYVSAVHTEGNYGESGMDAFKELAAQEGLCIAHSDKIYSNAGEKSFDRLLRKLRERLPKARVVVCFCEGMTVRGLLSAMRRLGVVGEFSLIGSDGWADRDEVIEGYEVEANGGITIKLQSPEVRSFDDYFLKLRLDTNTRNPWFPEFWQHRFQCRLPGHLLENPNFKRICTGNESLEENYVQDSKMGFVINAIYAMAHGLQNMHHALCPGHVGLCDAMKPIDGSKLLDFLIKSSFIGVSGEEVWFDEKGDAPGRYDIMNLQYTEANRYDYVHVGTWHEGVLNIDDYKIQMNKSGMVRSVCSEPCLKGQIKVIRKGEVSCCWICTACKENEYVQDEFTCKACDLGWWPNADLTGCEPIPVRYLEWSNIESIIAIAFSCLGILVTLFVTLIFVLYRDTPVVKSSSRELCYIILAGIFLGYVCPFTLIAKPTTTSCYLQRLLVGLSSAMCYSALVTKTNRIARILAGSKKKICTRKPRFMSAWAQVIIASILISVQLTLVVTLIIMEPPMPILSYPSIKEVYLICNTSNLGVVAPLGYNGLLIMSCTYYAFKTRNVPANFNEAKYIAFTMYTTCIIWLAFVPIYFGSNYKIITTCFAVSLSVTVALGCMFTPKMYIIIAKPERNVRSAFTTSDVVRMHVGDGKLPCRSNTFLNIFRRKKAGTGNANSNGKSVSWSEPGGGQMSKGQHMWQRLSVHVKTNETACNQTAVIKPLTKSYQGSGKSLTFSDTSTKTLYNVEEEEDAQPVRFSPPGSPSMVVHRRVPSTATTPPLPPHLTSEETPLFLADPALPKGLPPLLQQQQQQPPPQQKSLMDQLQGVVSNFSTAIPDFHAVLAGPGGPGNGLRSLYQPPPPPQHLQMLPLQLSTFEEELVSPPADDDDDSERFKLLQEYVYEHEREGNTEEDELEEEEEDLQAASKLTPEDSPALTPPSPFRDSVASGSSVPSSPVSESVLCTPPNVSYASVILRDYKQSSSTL
compound,measurement,setting,value
"COc1ccc(C(=O)N(C)c2nc(-c3cc(NC(C)C)ncn3)cs2)cc1 [[^11C]ITMM, [^11C]N-[4-[6-(isopropylamino)pyrimidin-4-yl]-1,3-thiazol-2-yl]-4-methoxy-N-methylbenzamide]",peak uptake in mGluR1-rich cerebellum,[1],< 1.3 SUV
"CNc1cc(-c2csc(N(C)C(=O)c3ccc(F)cc3)n2)ncn1 [[^11C]FIMX, [carbonyl-^11C]4-Fluoro-N-methyl-N-(4-(6-(methylamino)pyrimidin-4-yl)thiazol-2-yl)benzamide]",logD obtained without correction for instability,[2],2.52
same,plasma free fraction (fP),[3],0.042 ± 0.003
same,unchanged radioligand in brain homogenates,[4],99.4%
same,remaining fraction of original radiochemical purity in buffer,[5],79.1 ± 3.3%
same,peak radioactivity uptake in frontal cortex,[6],4.23 SUV
same,peak radioactivity uptake in hippocampus,[6],4.47 SUV
same,peak radioactivity uptake in occipital cortex,[6],3.67 SUV
same,peak radioactivity uptake in thalamus,[6],6.00 SUV
same,cerebellum radioactivity level at 85 min,[6]; 85 min after injection,5.74 SUV
same,decrease of cerebellum radioactivity from peak,[6]; at 85 min after injection,32%
same,time of peak regional brain radioactivity uptake,[6]; i.v.,around 12.5 min
same,peak radioactivity uptake in cerebellum,[6]; receptor-rich cerebellum,8.50 SUV and 8.5 SUV
same,percentage of total plasma radioactivity represented by parent,"[7]; baseline, 10 min after i.v. injection",31%
same,percentage of total plasma radioactivity represented by parent,"[7]; baseline, 30 min after i.v. injection",21%
same,percentage of total plasma radioactivity represented by parent,"[7]; preblocked condition, 10 min after i.v. injection",43%
same,percentage of total plasma radioactivity represented by parent,"[7]; preblocked condition, 30 min after i.v. injection",31%
same,unchanged radioligand in plasma,[8]; monkey plasma,91%
same,unchanged radioligand in whole blood,[8]; monkey whole blood,92%
same,imaging time after which VT appeared stable in all brain regions,[9]; baseline,60 min
same,imaging time by which VT is within 10% of terminal value,"[9]; baseline scans, two-tissue compartment model",≤ 40 min
same,reduction of VT in cerebellum by preblock,[9]; baseline vs preblock with JNJ16259685,~90%
same,VT in cerebellum,"[9]; rhesus monkey cerebellum, baseline",13 mL/cm^3
same,unchanged radioligand in formulation,[10],> 97%
"Cc1ccc(C(=O)N(C)c2nc(-c3cc(NC(C)C)ncn3)cs2)cc1 [[^11C]ITDM, [^11C]N-[4-[6-(isopropylamino)pyrimidin-4-yl]-1,3-thiazol-2-yl]-4-methyl-N-methylbenzamide]",peak uptake in mGluR1-rich cerebellum,[1],< 1.3 SUV
"CNc1cc(-c2csc(N(C)C(=O)c3ccc([18F])cc3)n2)ncn1 [[^18F]FIMX, [^18F]4-fluoro-N-methyl-N-(4-(6-(methylamino)pyrimidin-4-yl)thiazol-2-yl)benzamide]",decrease of cerebellum radioactivity from peak,[1]; at 90 min after injection,37%
same,IC50,[11],1.8 nM
